{"source": "patent US20230301299A1", "about": "“DISINFECTING FORMULATIONS WITH CARVACROL” (priority 2022, published 2023)", "key": {"Staphylococcus aureus [1]": {"test_system": "Staphylococcus aureus", "assay": "minimum inhibitory concentration test (normalized T0, growth after neutralisation)", "format": "cell-based", "conditions": "for inhibitory effect (normalized T0, lower = increased inhibitory effect): FIG. 1, 0.5% essential oil compound, 5 minute contact time, 24 hour growth", "experimental": "Various essential oil compounds were evaluated in a minimum inhibitory concentration test (e.g., against Staphylococcus aureus), to evaluate the inhibiting characteristics of the various tested compounds. […] Each candidate essential oil compound active was tested at 0.5% concentration, with 1% sodium lauryl sulfate (SLS), with a 5 minute contact time. As those of skill in the art will appreciate, the testing was conducted following EPA microbiology efficacy protocols, where the candidate active to be tested is applied to an inoculum (e.g., Staphylococcus aureus), and after a given contact time (e.g., 5 minutes), the active being tested is neutralized (e.g., with growth media), and the treated inoculum is allowed to grow out over a period of 24 hours. After the 24 hour growth period, an automated plate reader is used to measure inoculum growth, and the results are tabulated, relative to a control standard, which was not contacted with any active. Such testing therefore allows determination of which candidate actives provide for an inhibitory effect relative to a target microbe, as well as information relative to which candidate actives may be better than others.\nBased on the results seen in FIG. 1, carvacrol was identified as a good candidate for further study. […] All tested samples included 1% SLS, with 0.5% of the shown co-surfactant, and 0.2% of the shown essential oil compound, with the results averaged over 3 contact times of 5, 15, and 30 minutes. […] For example, the amine oxide, sophorolipid, alkylpolyglycoside, and alcohol ethoxylate show such results, particularly in combination with carvacrol. For this reason, such surfactants may be avoided, in at least some embodiments of the present invention.\nAll tested samples included 1.5% SLS as the primary surfactant, with 1% of the shown essential oil compound, and 1% of the tested co-surfactant.\nIn particular, FIG. 5 plots change in T0 (ΔT0) compared to carvacrol as used alone (i.e. with no secondary essential oil compound)."}, "Staphylococcus aureus [2]": {"test_system": "Staphylococcus aureus", "assay": "log reduction, EPA germicidal spray test (GST) / OECD quantitative method", "format": "cell-based", "conditions": "FIG. 7; 1% SLS, 0.5% second alkyl sulfate, 0.4% silicate buffer, 0.25% chelating agent, carvacrol 0.2% up to 1%; 3 and 5 minute contact times", "experimental": "Tests were performed under standards promulgated by the EPA (e.g., the EPA's germicidal spray test “GST”) and the OECD (e.g., the Organization for Economic Co-Operation and Development). The OECD standards include an evaluation of the tested compositions ability to work in an environment where the target surface being cleaned includes soiling. The GST test is carried out according to the EPA's Standard Operating Procedure for Germicidal Spray Products as Disinfectants (GSPT): Testing of Staphylococcus aureus, Pseudomonas aeruginosa, and Salmonella enterica, published under SOP MB-06-09, which is herein incorporated by reference in its entirety. Such is available at https://www.epa.gov/sites/default/files/2018-01/documents/mb-06-09,pdf. The OECD test is carried out according to the EPA's Standard Operating Procedure for OECD Quantitative Method for Evaluating Bactericidal and Mycobactericidal Activity of Microbicides Used on Hard, Non-Porous Surfaces, published under SOP MB-25-05, which is herein incorporated by reference in its entirety. Such is available at https://www.epa.gov/sites/default/files/2019-05/documents/mb-25-05.pdf."}, "[3]": {"conditions": "FIG. 2, 1% SLS, 0.5% co-surfactant, 0.2% essential oil compound, averaged over contact times of 5, 15 and 30 minutes"}}, "data": [{"compound": "sophorolipid", "values": [{"measurement": "inhibitory effect (normalized T0)", "setting": "Staphylococcus aureus [1]; [3]", "value": "opposite of an inhibitory effect"}]}, {"compound": "alcohol ethoxylate", "values": [{"measurement": "inhibitory effect (normalized T0)", "setting": "Staphylococcus aureus [1]; [3]", "value": "opposite of an inhibitory effect"}]}, {"compound": "Cc1ccc(C(C)C)c(O)c1", "note": "[thymol, reference compound]", "values": [{"measurement": "inhibitory effect (normalized T0, lower = increased inhibitory effect)", "setting": "Staphylococcus aureus [1]; 1% SLS", "value": "some inhibitory effect"}]}, {"compound": "alkylpolyglycoside", "values": [{"measurement": "inhibitory effect (normalized T0)", "setting": "Staphylococcus aureus [1]; [3]", "value": "opposite of an inhibitory effect"}]}, {"compound": "Cc1ccc(C(C)C)cc1O", "note": "[carvacrol]", "values": [{"measurement": "log reduction against Staphylococcus aureus", "setting": "Staphylococcus aureus [2]", "value": "increased log reduction with increasing carvacrol concentration"}, {"measurement": "inhibitory effect (normalized T0, lower = increased inhibitory effect)", "setting": "Staphylococcus aureus [1]; 1% SLS", "value": "best inhibitory effect"}, {"measurement": "inhibitory effect (normalized T0)", "setting": "Staphylococcus aureus [1]; FIG. 3, 1.5% SLS, 1% essential oil compound, 1% co-surfactant", "value": "lowest T0 values"}]}]}
